Results taken from the NIST ThermoML archive (doi:10.1021/je300827f).

Assay: xn = mol fraction of the nth substance listed
Settings: 101 kPa, Liquid; for viscosity: Capillary tube (Ostwald / Ubbelohde) method; for mass density: Vibrating tube method

CCC(C)O (stereo not given) [butan-2-ol] + OCCOCCO
x2 = 0
Settings	mass density [kg/m3]	viscosity [mPa·s]
298.15 K	802.7	3.1
303.15 K	798.3	2.6
308.15 K	793.6	2.15
313.15 K	789.1	1.73

CCCCC(C)O (stereo not given) [2-hexanol] + OCCOCCO
Settings	mass density, 298.15 K [kg/m3]	mass density, 303.15 K [kg/m3]	mass density, 308.15 K [kg/m3]	mass density, 313.15 K [kg/m3]	viscosity, 298.15 K [mPa·s]	viscosity, 303.15 K [mPa·s]	viscosity, 308.15 K [mPa·s]	viscosity, 313.15 K [mPa·s]
x2 = 0	810.1	806.1	802.1	798	4.1	3.41	2.82	2.22
x2 = 0.0809	828.8	824.7	820.3	816.1	4.24	3.93	3.13	2.26
x2 = 0.1597	847.7	843.5	839.1	834.7	4.39	4.19	3.38	2.47
x2 = 0.2398	867.8	863.5	858.9	854.4	4.71	4.43	3.66	2.85
x2 = 0.3501	896.9	892.5	887.8	883.1	5.69	5.03	4.24	3.63
x2 = 0.4398	921.9	917.6	912.7	908.2	7.07	5.96	4.99	4.5
x2 = 0.5602	957.6	953.2	948.4	943.7	9.89	8	6.49	5.99
x2 = 0.6501	985.9	981.6	976.9	972.3	12.69	10.16	8.04	7.37
x2 = 0.7403	1015.9	1011.7	1007.2	1002.7	16.04	12.83	9.96	8.96
x2 = 0.8502	1054.8	1050.9	1046.6	1042.5	20.63	16.56	12.76	11.2
x2 = 0.9398	1088.6	1084.9	1081.1	1077.5	24.55	19.77	15.38	13.28

OCCOCCO [diethylene glycol] + CCCC(C)O
Settings	mass density, 298.15 K [kg/m3]	mass density, 303.15 K [kg/m3]	mass density, 308.15 K [kg/m3]	mass density, 313.15 K [kg/m3]	viscosity, 298.15 K [mPa·s]	viscosity, 303.15 K [mPa·s]	viscosity, 308.15 K [mPa·s]	viscosity, 313.15 K [mPa·s]
x1 = 0.0811	827.8	823.5	818.9	814.6	3.85	3.17	2.84	2.47
x1 = 0.1598	849.9	845.5	840.8	836.5	4.44	3.55	3.29	2.93
x1 = 0.2399	872.9	868.4	863.5	859.2	5.12	4.05	3.79	3.44
x1 = 0.3501	905.1	900.6	895.7	891.3	6.37	5.03	4.58	4.26
x1 = 0.4398	931.9	927.5	922.6	918.2	7.79	6.17	5.42	5.08
x1 = 0.5599	968.7	964.2	959.5	955.2	10.37	8.3	6.9	6.46
x1 = 0.6501	997.1	992.8	988.1	983.9	12.9	10.35	8.33	7.74
x1 = 0.7399	1025.8	1021.7	1017.4	1013.1	15.92	12.81	10.08	9.22
x1 = 0.8499	1061.8	1058.1	1053.9	1050	20.26	16.33	12.72	11.36
x1 = 0.9399	1091.9	1088.3	1084.7	1081.1	24.28	19.56	15.31	13.35
x1 = 1	1112.4	1109.1	1105.6	1102.3	27.14	21.87	17.26	14.81

OCCOCCO [diethylene glycol] + CCCCCC(C)O
x1 = 1
Settings	mass density [kg/m3]	viscosity [mPa·s]
298.15 K	1112.4	27.14
303.15 K	1109.1	21.87
308.15 K	1105.6	17.26
313.15 K	1102.3	14.81

CCCC(C)O (stereo not given) [pentan-2-ol] + OCCOCCO
x2 = 0
Settings	mass density [kg/m3]	viscosity [mPa·s]
298.15 K	805.4	3.2
303.15 K	801.2	2.8
308.15 K	796.6	2.33
313.15 K	792.5	1.99
